In patent US7964539B2, “Well treatment” (Statoil ASA, priority 2004, dated 2011):
≈ marks a conversion by molar mass, not a printed value.

Experiments:
[1] = Biodegradability, tested according to OECD 306
Description: (§1) Organosilanes for use in the invention include, for example, organosilane hydrides, organosilane alkoxides and organosilane amines. Organosilane compounds have the advantage that they are typically oil-soluble and have the necessary reactivity with water. […] Organosilanes for use in the invention preferably have a biodegradability of at least 60%.

[2] = Fish toxicity (LC50 fish); settings: in vivo
Description: as §1

daphnia = experiment: Daphnia toxicity (EC50 daphnia); format: in vivo
Description: as §1

algae = experiment: Algae toxicity (IC50 algae); format: cell-based
Description: as §1

| Compound | biodegradability [1] [%] | LC50 [2] [µg/mL] | EC50 (daphnia) [µg/mL] | IC50 (algae) [µg/mL] |
| --- | --- | --- | --- | --- |
| CCO[Si](CCCN)(OCC)OCC [DYNASYLAN AMEO, 3-amino-propyltriethoxysilane] | 67 | 934 (≈ 4220 µM) | 331 (≈ 1500 µM) | 603 (≈ 2720 µM) |
| CCO[Si](CCCNCCC[Si](OCC)(OCC)OCC)(OCC)OCC [DYNASYLAN bis-AMEO, bis(triethoxysilylpropyl)amine] | 64.5 | > 200 | > 200 | 125 (≈ 294 µM) |
